For 29 compounds, IC50 results are on record in US8697739B2, “Bicyclic acetyl-CoA carboxylase inhibitors and uses thereof” (Novartis AG, priority 2010, dated 2014).

A value given as a limit tells only on which side of the number the result lay.

T1 sequence (O00763 144-2458): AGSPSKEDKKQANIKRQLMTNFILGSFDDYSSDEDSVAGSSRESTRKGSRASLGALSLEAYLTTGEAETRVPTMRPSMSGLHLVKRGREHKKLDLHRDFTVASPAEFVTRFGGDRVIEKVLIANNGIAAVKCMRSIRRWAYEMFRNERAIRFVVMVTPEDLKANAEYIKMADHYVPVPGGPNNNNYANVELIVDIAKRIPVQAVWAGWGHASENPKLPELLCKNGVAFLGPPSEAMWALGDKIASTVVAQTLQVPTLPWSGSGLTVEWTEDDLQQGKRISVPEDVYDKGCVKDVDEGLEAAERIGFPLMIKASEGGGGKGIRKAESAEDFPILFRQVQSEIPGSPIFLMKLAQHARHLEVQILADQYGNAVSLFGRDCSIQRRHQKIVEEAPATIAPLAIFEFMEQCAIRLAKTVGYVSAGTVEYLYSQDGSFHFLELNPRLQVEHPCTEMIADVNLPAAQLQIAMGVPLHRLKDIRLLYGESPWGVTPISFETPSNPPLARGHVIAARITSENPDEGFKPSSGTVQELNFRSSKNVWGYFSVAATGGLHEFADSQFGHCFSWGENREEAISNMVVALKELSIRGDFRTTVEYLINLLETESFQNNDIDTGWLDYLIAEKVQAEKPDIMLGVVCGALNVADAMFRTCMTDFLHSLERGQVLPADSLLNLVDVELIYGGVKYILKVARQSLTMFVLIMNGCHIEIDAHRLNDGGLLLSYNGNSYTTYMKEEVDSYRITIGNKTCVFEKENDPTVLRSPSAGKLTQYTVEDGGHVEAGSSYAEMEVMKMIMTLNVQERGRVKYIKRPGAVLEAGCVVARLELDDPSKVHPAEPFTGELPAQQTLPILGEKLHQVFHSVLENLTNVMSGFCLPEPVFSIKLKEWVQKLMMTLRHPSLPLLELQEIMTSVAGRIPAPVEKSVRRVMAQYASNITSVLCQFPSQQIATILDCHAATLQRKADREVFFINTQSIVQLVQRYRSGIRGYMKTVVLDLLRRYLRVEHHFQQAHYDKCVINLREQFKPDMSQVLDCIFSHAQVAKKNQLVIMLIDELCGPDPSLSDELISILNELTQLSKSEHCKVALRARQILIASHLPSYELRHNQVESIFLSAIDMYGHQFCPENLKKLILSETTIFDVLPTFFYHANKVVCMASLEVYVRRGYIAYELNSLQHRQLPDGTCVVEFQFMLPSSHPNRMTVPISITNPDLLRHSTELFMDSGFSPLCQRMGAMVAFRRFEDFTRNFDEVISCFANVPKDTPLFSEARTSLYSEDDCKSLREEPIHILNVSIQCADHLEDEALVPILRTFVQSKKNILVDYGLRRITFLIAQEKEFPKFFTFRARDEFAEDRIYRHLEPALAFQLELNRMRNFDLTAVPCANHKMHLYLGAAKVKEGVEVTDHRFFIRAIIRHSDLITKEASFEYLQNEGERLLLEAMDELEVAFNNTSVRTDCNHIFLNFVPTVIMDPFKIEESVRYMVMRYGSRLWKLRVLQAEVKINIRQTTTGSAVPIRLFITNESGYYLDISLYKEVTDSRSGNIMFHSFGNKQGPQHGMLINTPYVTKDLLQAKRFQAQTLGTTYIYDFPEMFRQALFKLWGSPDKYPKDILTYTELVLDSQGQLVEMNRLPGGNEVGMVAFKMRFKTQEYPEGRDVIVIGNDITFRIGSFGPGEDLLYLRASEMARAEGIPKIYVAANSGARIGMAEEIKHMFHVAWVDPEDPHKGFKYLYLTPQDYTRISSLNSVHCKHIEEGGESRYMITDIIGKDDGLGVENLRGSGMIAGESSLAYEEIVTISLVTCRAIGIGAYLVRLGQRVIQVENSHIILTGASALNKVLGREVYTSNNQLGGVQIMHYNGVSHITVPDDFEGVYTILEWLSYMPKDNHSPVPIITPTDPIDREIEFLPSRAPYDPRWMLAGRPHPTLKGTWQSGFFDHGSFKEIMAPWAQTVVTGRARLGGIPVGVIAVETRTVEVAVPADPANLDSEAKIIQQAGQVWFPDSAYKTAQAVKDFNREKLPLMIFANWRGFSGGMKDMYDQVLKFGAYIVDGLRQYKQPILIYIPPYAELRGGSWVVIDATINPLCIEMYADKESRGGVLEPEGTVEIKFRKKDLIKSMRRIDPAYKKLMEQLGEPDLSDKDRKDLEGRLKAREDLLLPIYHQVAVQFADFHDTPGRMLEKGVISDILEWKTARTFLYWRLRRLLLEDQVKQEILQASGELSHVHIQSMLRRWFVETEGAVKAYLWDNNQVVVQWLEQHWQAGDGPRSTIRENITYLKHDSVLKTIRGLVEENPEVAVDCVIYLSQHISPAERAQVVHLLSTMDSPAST

One experiment has as its target T1, human acetyl-CoA carboxylase 2 (ACC2) (Homo sapiens, UniProt O00763).
T1 construct: The cDNA encoding amino acids 144 to 2458 of human acetyl-CoA carboxylase 2; made in house; host or cells: Sf9 insect cells (baculovirus, pFastBac1)
As to the kind of experiment: Acetyl-CoA carboxylase enzyme assay (malonyl-CoA formation by LC/MS/MS). Type of experiment: biochemical. To be noted: IC50 ACC2, recombinant human ACC2 (aa 144-2458). Summed up:
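Malonyl-CoA formation was read by LC/MS/MS MRM against a [13C3]-malonyl-CoA internal standard, after acetic acid quench. The enzyme was baculovirus/Sf9-expressed human ACC2 residues 144–2458, given 15 minutes room-temperature compound preincubation in HEPES pH 7.5 buffer with MgCl2, citrate and DTT. Substrate solution held 50 μM acetyl-CoA, 120 μM ATP and 2 mM KHCO3.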
In the case of `O=C([C@H]1CC[C@H](NS(=O)(=O)c2ccc3[nH]c(-c4ccccc4)nc3c2)CC1)N1CCC2(CC1)OCCCO2` [Example 622, N-((1r,4r)-4-(1,5-dioxa-9-azaspiro[5.5]undecane-9-carbonyl)cyclohexyl)-2-phenyl-1H-benzo[d]imidazole-5-sulfonamide], the IC50 came out at 411 nM.

Staying with this experiment, now noted: recombinant human ACC2 (aa 144-2458); read-out: IC50 ACC2.
Regarding `CC(C)c1nnc([C@H]2CC[C@H](NS(=O)(=O)c3ccc4[nH]c(Nc5ccc(N6CCN(C)CC6)cc5)nc4c3)CC2)o1` [Example 598, N-((1r,4r)-4-(5-isopropyl-1,3,4-oxadiazol-2-yl)cyclohexyl)-2-(4-(4-methylpiperazin-1-yl)phenylamino)-1H-benzo[d]imidazole-5-sulfonamide], the IC50 is 88 nM.
Consider `CC(C)c1nnc([C@H]2CC[C@H](NS(=O)(=O)c3ccc4[nH]c(Nc5ccc(N6CCOCC6)cc5)nc4c3)CC2)o1` [Example 599, N-((1r,4r)-4-(5-isopropyl-1,3,4-oxadiazol-2-yl)cyclohexyl)-2-(4-morpholinophenylamino)-1H-benzo[d]imidazole-5-sulfonamide], for which the concentration for half-maximal inhibition (IC50) came out at 270 nM.
`CC(C)(C)c1nnc([C@H]2CC[C@H](NS(=O)(=O)c3ccc4[nH]c(Nc5ccc(N6CCOCC6)cc5)nc4c3)CC2)o1` [Example 600, N-((1r,4r)-4-(5-tert-butyl-1,3,4-oxadiazol-2-yl)cyclohexyl)-2-(4-morpholinophenylamino)-1H-benzo[d]imidazole-5-sulfonamide]: the half-inhibitory concentration (IC50) worked out at 139 nM.
As for `CC(C)c1nnc(-c2ccc(NS(=O)(=O)c3ccc4[nH]c(Nc5ccccc5)nc4c3)cc2)o1` [Example 601, N-(4-(5-isopropyl-1,3,4-oxadiazol-2-yl)phenyl)-2-(phenylamino)-1H-benzo[d]imidazole-5-sulfonamide], the IC50 is 539 nM.
On the same count and under the same terms, then `COc1ccc(Nc2nc3cc(S(=O)(=O)Nc4ccc(-c5nnc(C(C)C)o5)cc4)ccc3[nH]2)cc1` [Example 602, N-(4-(5-isopropyl-1,3,4-oxadiazol-2-yl)phenyl)-2-(4-methoxyphenylamino)-1H-benzo[d]imidazole-5-sulfonamide], with 536 nM; and `CC(C)c1nnc(-c2ccc(NS(=O)(=O)c3ccc4[nH]c(Nc5ccc(N6CCOCC6)cc5)nc4c3)cc2)o1` [Example 603, N-(4-(5-isopropyl-1,3,4-oxadiazol-2-yl)phenyl)-2-(4-morpholinophenylamino)-1H-benzo[d]imidazole-5-sulfonamide], with 323 nM; and `COc1ccc(Nc2nc3cc(S(=O)(=O)Nc4ccc(-c5nnc(C(C)(C)C)o5)cc4)ccc3[nH]2)cc1` [Example 604, N-(4-(5-tert-butyl-1,3,4-oxadiazol-2-yl)phenyl)-2-(4-methoxyphenylamino)-1H-benzo[d]imidazole-5-sulfonamide], with 676 nM.
In the case of `CC(C)c1nnc(-c2ccc(NS(=O)(=O)c3ccc4[nH]c(Nc5ccc(N6CCN(C)CC6)cc5)nc4c3)cc2)o1` [Example 605, N-(4-(5-isopropyl-1,3,4-oxadiazol-2-yl)phenyl)-2-(4-(4-methylpiperazin-1-yl)phenylamino)-1H-benzo[d]imidazole-5-sulfonamide], the IC50 amounted to 138 nM.
The same measure, in the same setting: the figure for `C[C@@H](NC(=O)[C@H]1CC[C@H](NS(=O)(=O)c2ccc3[nH]c(Nc4ccc(N5CCN(C)CC5)cc4)nc3c2)CC1)c1ccccc1` [Example 606, (1r,4R)-4-(2-(4-(4-methylpiperazin-1-yl)phenylamino)-1H-benzo[d]imidazole-5-sulfonamido)-N-((R)-1-phenylethyl)cyclohexanecarboxamide] is under 10 nM; for `CC(C)(C)c1nnc([C@H]2CC[C@H](NS(=O)(=O)c3ccc4[nH]c(-c5ccc(F)cc5)nc4c3)CC2)o1` [Example 607, N-((1r,4r)-4-(5-tert-butyl-1,3,4-oxadiazol-2-yl)cyclohexyl)-2-(4-fluorophenyl)-1H-benzo[d]imidazole-5-sulfonamide] it is 1090 nM.
The same measure, in the same setting: then `COC(=O)c1cccc(-c2nc3cc(S(=O)(=O)N[C@H]4CC[C@H](c5nnc(C(C)(C)C)o5)CC4)ccc3[nH]2)c1` [Example 608, methyl 3-(5-(N-((1r,4r)-4-(5-tert-butyl-1,3,4-oxadiazol-2-yl)cyclohexyl)sulfamoyl)-1H-benzo[d]imidazol-2-yl)benzoate], with 971 nM.
For the compound `CC(C)(C)c1nnc([C@H]2CC[C@H](NS(=O)(=O)c3ccc4[nH]c(-c5ccc(Cl)cc5)nc4c3)CC2)o1` [Example 609, N-((1r,4r)-4-(5-tert-butyl-1,3,4-oxadiazol-2-yl)cyclohexyl)-2-(4-chlorophenyl)-1H-benzo[d]imidazole-5-sulfonamide], the concentration for half-maximal inhibition (IC50) came to 1220 nM.
The same measure, in the same setting: the figure for `CC(C)(C)c1nnc([C@H]2CC[C@H](NS(=O)(=O)c3ccc4[nH]c(-c5cccc(C(=O)O)c5)nc4c3)CC2)o1` [Example 610, 3-(5-(N-((1r,4r)-4-(5-tert-butyl-1,3,4-oxadiazol-2-yl)cyclohexyl)sulfamoyl)-1H-benzo[d]imidazol-2-yl)benzoic acid] is 1740 nM.
Consider `C[C@@H](NC(=O)[C@H]1CC[C@H](NS(=O)(=O)c2ccc3[nH]c(-c4ccccc4)nc3c2)CC1)c1ccc(F)cc1` [Example 611, (1r,4R)-N-((R)-1-(4-fluorophenyl)ethyl)-4-(2-phenyl-1H-benzo[d]imidazole-5-sulfonamido)cyclohexanecarboxamide], for which the half-maximal inhibitory concentration (IC50) is under 10 nM.
In the case of `O=C1NCCCC[C@@H]1NC(=O)[C@H]1CC[C@H](NS(=O)(=O)c2ccc3[nH]c(-c4ccccc4)nc3c2)CC1` [Example 612, (1r,4S)-N-((S)-2-oxoazepan-3-yl)-4-(2-phenyl-1H-benzo[d]imidazole-5-sulfonamido)cyclohexanecarboxamide], the IC50 was found to be 16 nM.
`Cc1nc2cc(S(=O)(=O)NC3CCC(c4nnc(C(C)C)o4)CC3)ccc2[nH]1` (centres unmarked) [Example 613, N-((1r,4r)-4-(5-isopropyl-1,3,4-oxadiazol-2-yl)cyclohexyl)-2-methyl-1H-benzo[d]imidazole-5-sulfonamide]: the 50% inhibitory concentration (IC50) was found to be 39600 nM.
`Cc1nc2cc(S(=O)(=O)N[C@H]3CC[C@H](C(=O)N[C@H](C)c4ccccc4)CC3)ccc2[nH]1` [Example 614, (1r,4R)-4-(2-methyl-1H-benzo[d]imidazole-5-sulfonamido)-N-((R)-1-phenylethyl)cyclohexanecarboxamide]: the IC50 was determined as 142 nM.
Same read-out and setting: then `Cc1nc2cc(S(=O)(=O)N[C@H]3CC[C@H](c4nnc(C(C)(C)C)o4)CC3)ccc2[nH]1` [Example 615, N-((1r,4r)-4-(5-tert-butyl-1,3,4-oxadiazol-2-yl)cyclohexyl)-2-methyl-1H-benzo[d]imidazole-5-sulfonamide], with 11500 nM; and `O=C([C@H]1CC[C@H](NS(=O)(=O)c2ccc3[nH]c(-c4ccccc4)nc3c2)CC1)N1CCc2ccccc2C1` [Example 616, 2-phenyl-N-((1r,4r)-4-(1,2,3,4-tetrahydroisoquinoline-2-carbonyl)cyclohexyl)-1H-benzo[d]imidazole-5-sulfonamide], with 370 nM; and `O=C([C@H]1CC[C@H](NS(=O)(=O)c2ccc3[nH]c(-c4ccccc4)nc3c2)CC1)N1CCN(c2ccccc2)CC1` [Example 617, 2-phenyl-N-((1r,4r)-4-(4-phenylpiperazine-1-carbonyl)cyclohexyl)-1H-benzo[d]imidazole-5-sulfonamide], with 996 nM.
Same read-out and setting: the figure for `CN(C(=O)[C@H]1CC[C@H](NS(=O)(=O)c2ccc3[nH]c(-c4ccccc4)nc3c2)CC1)C1CCCCC1` [Example 618, (1r,4r)-N-cyclohexyl-N-methyl-4-(2-phenyl-1H-benzo[d]imidazole-5-sulfonamido)cyclohexanecarboxamide] is 80 nM.
Same read-out and setting: then `CN(Cc1ccccc1)C(=O)[C@H]1CC[C@H](NS(=O)(=O)c2ccc3[nH]c(-c4ccccc4)nc3c2)CC1` [Example 619, (1r,4r)-N-benzyl-N-methyl-4-(2-phenyl-1H-benzo[d]imidazole-5-sulfonamido)cyclohexanecarboxamide], with 558 nM; and `CC1CN(C(=O)[C@H]2CC[C@H](NS(=O)(=O)c3ccc4[nH]c(-c5ccccc5)nc4c3)CC2)CC(C)O1` (some centres unmarked) [Example 620, N-((1r,4r)-4-(2,6-dimethylmorpholine-4-carbonyl)cyclohexyl)-2-phenyl-1H-benzo[d]imidazole-5-sulfonamide], with 58 nM; and `O=C(NCCO)[C@H]1CC[C@H](NS(=O)(=O)c2ccc3[nH]c(-c4ccccc4)nc3c2)CC1` [Example 621, (1r,4r)-N-(2-hydroxyethyl)-4-(2-phenyl-1H-benzo[d]imidazole-5-sulfonamido)cyclohexanecarboxamide], with 1520 nM.
As to `O=C([C@H]1CC[C@H](NS(=O)(=O)c2ccc3[nH]c(-c4ccccc4)nc3c2)CC1)N1Cc2ccccc2C1` [Example 623, N-((1r,4r)-4-(isoindoline-2-carbonyl)cyclohexyl)-2-phenyl-1H-benzo[d]imidazole-5-sulfonamide], the concentration for half-maximal inhibition (IC50) was determined as 560 nM.
Same read-out and setting: then `O=C([C@H]1CC[C@H](NS(=O)(=O)c2ccc3[nH]c(-c4ccccc4)nc3c2)CC1)N1CCC2CCCCC2C1` (some centres unmarked) [Example 624, N-((1r-4r)-4-(decahydroisoquinoline-2-carbonyl)cyclohexyl)-2-phenyl-1H-benzo[d]imidazole-5-sulfonamide], with 246 nM.
The same measure, in the same setting: the figure for `CCCN(CC1CC1)C(=O)[C@H]1CC[C@H](NS(=O)(=O)c2ccc3[nH]c(-c4ccccc4)nc3c2)CC1` [Example 625, (1r,4r)-N-(cyclopropylmethyl)-4-(2-phenyl-1H-benzo[d]imidole-5-sulfonamido)-N-propylcyclohexanecarboxamide] is 80 nM.
On the same count and under the same terms, then `CC1CC(C)CN(C(=O)[C@H]2CC[C@H](NS(=O)(=O)c3ccc4[nH]c(-c5ccccc5)nc4c3)CC2)C1` (some centres unmarked) [Example 626, N-((1r,4r)-4-(3,5-dimethylpiperidine-1-carbonyl)cyclohexyl)-2-phenyl-1H-benzo[d]imidazole-5-sulfonamide], with 78 nM.

For orientation: IC50 means the midpoint of a concentration-inhibition curve.
